Test results as given in patent US11897862B2 (Gilead Sciences, Inc., priority 2022, dated 2024).

Key:
Format in all cases: cell-based
IKZF2 [1] = molecular target: T1, IKZF2 (Homo sapiens, UniProt Q96SW2+Q9UKS7); assay: HEK293 HiBiT in vitro degradation of IKZF2; design: expressed in transfected cells; details: for Dmax: HEK293, HEK293 HiBiT; for Dmax / IKZF2 Dmax: maximum degradation at the highest concentration tested; for DC50 / IKZF2 Dmax: HEK293 HiBiT; for DC50: 18-24 hr incubation, normalized to DMSO control, read-out: IKZF2 EC50
Procedure, shortened: (§1)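 Cellular target level is measured as luminescence from an 11-residue HiBiT tag fused via a linker to the C-terminus of IKZF1, IKZF2 or SALL4 in stable Flp-In T-REx HEK293 pools. Reporter expression is induced overnight with doxycycline ([…] final), and compounds act for 18-24 h before lytic detection.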
Target sequence in this assay (Q9UKS7 1-500 isoform Q9UKS7-2): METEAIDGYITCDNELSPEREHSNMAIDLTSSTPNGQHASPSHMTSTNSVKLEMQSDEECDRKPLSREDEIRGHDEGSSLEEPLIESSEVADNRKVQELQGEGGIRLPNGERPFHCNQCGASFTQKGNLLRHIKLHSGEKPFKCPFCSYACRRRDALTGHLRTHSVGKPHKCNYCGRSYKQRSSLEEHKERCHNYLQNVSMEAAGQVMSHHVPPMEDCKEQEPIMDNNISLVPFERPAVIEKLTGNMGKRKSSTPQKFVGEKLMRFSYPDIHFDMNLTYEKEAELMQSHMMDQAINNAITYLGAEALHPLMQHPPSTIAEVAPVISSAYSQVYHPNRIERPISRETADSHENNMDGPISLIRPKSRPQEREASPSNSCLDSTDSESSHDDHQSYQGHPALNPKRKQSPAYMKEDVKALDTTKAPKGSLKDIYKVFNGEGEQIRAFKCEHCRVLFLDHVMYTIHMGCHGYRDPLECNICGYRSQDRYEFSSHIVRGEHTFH
Target sequence in this assay (Q96SW2 whole entry, the tested form may be a part): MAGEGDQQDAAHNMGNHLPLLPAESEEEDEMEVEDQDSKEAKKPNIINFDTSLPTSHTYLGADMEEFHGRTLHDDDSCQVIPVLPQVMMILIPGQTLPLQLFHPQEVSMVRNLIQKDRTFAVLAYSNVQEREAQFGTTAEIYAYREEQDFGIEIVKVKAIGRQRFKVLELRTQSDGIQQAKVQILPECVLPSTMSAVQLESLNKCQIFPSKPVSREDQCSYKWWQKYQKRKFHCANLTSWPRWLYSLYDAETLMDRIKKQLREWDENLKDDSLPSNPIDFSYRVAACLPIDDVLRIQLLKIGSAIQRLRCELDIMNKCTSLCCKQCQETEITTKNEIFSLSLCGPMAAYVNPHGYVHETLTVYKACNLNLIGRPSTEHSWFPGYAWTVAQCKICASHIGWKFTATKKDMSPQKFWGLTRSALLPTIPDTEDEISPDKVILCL
Target sequence in this assay (Q16531 whole entry partner, the tested form may be a part): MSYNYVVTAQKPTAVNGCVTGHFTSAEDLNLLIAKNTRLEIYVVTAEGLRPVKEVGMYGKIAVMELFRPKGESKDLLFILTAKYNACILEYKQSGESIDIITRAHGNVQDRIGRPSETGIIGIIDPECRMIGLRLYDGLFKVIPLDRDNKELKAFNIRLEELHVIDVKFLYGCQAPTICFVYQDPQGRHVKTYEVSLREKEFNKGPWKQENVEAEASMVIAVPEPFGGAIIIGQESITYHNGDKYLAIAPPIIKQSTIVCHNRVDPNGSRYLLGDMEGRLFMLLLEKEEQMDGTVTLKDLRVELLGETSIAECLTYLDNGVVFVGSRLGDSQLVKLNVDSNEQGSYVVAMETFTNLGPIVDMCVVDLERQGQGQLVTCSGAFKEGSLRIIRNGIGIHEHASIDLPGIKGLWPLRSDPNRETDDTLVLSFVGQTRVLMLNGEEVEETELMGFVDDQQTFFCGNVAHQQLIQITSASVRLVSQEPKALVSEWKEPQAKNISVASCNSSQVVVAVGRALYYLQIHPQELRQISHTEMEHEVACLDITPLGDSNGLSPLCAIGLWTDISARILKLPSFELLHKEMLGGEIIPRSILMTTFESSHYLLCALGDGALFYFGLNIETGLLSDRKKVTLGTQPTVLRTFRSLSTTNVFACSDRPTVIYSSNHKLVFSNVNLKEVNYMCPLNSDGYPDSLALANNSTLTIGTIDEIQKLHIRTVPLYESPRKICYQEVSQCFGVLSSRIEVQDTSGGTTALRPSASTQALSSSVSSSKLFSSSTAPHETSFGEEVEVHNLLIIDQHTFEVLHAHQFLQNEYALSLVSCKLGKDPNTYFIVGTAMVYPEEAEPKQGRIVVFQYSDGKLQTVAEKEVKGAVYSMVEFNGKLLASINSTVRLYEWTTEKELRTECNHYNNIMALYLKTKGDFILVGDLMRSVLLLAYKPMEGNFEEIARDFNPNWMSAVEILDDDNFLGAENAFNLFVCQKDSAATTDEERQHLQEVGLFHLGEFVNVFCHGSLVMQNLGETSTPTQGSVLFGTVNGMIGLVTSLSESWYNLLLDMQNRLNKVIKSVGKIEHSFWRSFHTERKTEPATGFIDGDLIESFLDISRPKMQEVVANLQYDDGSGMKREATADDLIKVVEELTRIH

IKZF2 [2] = molecular target: T1, IKZF2; assay: Human whole blood IKZF2 degradation (flow cytometry, CD4/CD25/Foxp3+ Treg cells); design: endogenous in cells; details: 24 hrs incubation, IKZF2 MFI in CD4/CD25/Foxp3+ Treg cells, flow cytometry; for DC50: read-out: IKZF2 EC50
Description: In vitro IKZF2 potency was assessed in human whole blood using a fluorescence activated cell sorting assay. 50 μL of freshly collected blood from healthy human volunteers was incubated with Immunocult CD3/CD28 activator (Stemcell Technologies) and solution of testing compounds (serially-diluted) for 24 hrs hours at 37° C. in 384 well plates. The treated red blood cells were removed by adding lysis buffer (BD cat #558049) then the cells were fixed, permeabilized, and stained with anti-CD4 (BD cat #564419), anti-Foxp3 (Invitrogen cat #48-4777-42), anti-IKZF1 (Cell Signaling Tech. cat #33462S), and anti-IKZF2(Cell Signaling Tech. cat #65432S) antibodies. The median fluorescent intensity (MFI) of IKZF2 signal from CD4/CD25/Foxp3+ Treg cells and MFI of IKZF1 signal from CD4+ T cells were quantified in the same samples by flow cytometry using an Attune instrument. EC50 and Dmax of each compound was determined by plotting the MFI and DMSO treated wells were used as control. Asterisks (*) indicate examples for which data represents an average of n≥3 repeat experiments.
Target sequence in this assay (Q9UKS7 whole entry, the tested form may be a part): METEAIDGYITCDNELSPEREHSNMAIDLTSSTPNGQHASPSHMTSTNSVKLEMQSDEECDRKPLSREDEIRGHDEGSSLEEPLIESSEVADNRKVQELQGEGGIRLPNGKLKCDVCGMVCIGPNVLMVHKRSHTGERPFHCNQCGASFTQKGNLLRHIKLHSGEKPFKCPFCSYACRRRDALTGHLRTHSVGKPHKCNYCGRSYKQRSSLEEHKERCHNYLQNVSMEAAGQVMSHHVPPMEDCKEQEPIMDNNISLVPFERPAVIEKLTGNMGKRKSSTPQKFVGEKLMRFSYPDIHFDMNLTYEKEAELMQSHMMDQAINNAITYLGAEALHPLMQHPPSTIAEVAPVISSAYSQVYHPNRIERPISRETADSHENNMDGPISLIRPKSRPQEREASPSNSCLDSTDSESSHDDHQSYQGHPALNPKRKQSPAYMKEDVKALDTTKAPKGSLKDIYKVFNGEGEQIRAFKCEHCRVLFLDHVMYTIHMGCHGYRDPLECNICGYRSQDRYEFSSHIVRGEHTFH
Target sequence in this assay (Q96SW2 whole entry, the tested form may be a part): as the sequence (Q96SW2 whole entry, the tested form may be a part) above
Target sequence in this assay (Q16531 whole entry partner, the tested form may be a part): as the sequence (Q16531 whole entry partner, the tested form may be a part) above

IKZF1 = molecular target: T2, IKZF1 (Homo sapiens, UniProt Q13422+Q96SW2); assay: HEK293 HiBiT in vitro degradation of IKZF1; details: for DC50 / IKZF1 Dmax: HEK293 HiBiT; for DC50: 18-24 hr incubation, normalized to DMSO control, read-out: IKZF1 EC50; for Dmax: HEK293, HEK293 HiBiT; for Dmax / IKZF1 Dmax: maximum degradation at the highest concentration tested
T2 construct: expressed in transfected cells
T2 sequence (Q13422 whole entry): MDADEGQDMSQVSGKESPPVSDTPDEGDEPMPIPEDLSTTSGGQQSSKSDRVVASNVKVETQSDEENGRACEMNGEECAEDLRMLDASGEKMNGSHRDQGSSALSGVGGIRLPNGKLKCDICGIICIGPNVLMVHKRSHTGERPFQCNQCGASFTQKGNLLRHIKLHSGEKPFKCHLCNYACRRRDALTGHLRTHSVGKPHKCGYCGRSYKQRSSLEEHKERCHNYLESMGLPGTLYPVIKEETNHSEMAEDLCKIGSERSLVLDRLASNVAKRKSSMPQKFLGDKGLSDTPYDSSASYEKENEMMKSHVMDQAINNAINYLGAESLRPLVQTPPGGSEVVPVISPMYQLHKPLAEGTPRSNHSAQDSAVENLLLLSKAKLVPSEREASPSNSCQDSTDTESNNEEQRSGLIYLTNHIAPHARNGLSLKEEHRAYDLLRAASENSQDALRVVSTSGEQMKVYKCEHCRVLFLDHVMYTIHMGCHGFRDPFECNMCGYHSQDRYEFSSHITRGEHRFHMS
T2 sequence (Q96SW2 whole entry): as the sequence (Q96SW2 whole entry, the tested form may be a part) above
T2 sequence (Q16531 whole entry partner): as the sequence (Q16531 whole entry partner, the tested form may be a part) above
Procedure, shortened: as §1

| Structure (SMILES) | Dmax (IKZF2 [1]) [%] | DC50 (IKZF2 [1]) [µM] | Dmax (IKZF2 [2]) [%] | DC50 (IKZF2 [2]) [µM] | DC50 (IKZF1) [µM] | Dmax (IKZF1) [%] | IKZF2 Dmax (IKZF2 [1]) [%] | IKZF2 Dmax (IKZF2 [2]) [%] | IKZF1 Dmax (IKZF1) [%] |
| --- | --- | --- | --- | --- | --- | --- | --- | --- | --- |
| COC1CCC(N[C@H]2CCCO[C@@H]2Cc2ccc3c(c2F)CN(C2CCC(=O)NC2=O)C3=O)CC1 (some centres unmarked) [Example 159] | 100 | 0.006 | 94 | 0.005 | > 1 | – | – | – | – |
| CC(C)N[C@H]1CCCC[C@@H]1Cc1ccc2c(c1F)CN(C1CCC(=O)NC1=O)C2=O (stereo partly drawn) [Example 85, 3-(4-fluoro-5-(((1R,2S)-2-(isopropylamino)cyclohexyl)methyl)-1-oxoisoindolin-2-yl)piperidine-2,6-dione] | 97 | 0.002 | 96 | 0.002 | 0.07 | 40 | – | – | – |
| C[C@]1(O)CC[C@H](NC2CCC(F)(F)CC2)[C@@H](Cc2ccc3c(c2)CN(C2CCC(=O)NC2=O)C3=O)C1 (some centres unmarked) [Example 155] | 97 | 0.03 | 91 | 0.012 | 0.226 | 27 | – | – | – |
| N#CC1CCC(N[C@H]2CCCC[C@@H]2Cc2ccc3c(c2)CN(C2CCC(=O)NC2=O)C3=O)CC1 (single isomer, unassigned) [Example 267] | 98 | 0.004 | 97 | 0.002 | 0.109 | 44 | – | – | – |
| O=C1CCC(N2Cc3cc(C[C@H]4CCCC[C@@H]4NC4CC5(CCOCC5)C4)ccc3C2=O)C(=O)N1 (some centres unmarked) [Example 125] | 96 | 0.017 | 91 | 0.003 | 0.126 | 26 | – | – | – |
| CC(CC(C)(C)C)N[C@H]1CCCC[C@@H]1Cc1ccc2c(c1)CN(C1CCC(=O)NC1=O)C2=O (some centres unmarked) [Example 220] | – | 0.002 | 98 | 0.003 | > 1 | – | 96 | – | – |
| CC(CC(F)(F)F)N[C@H]1CCCC[C@@H]1Cc1ccc2c(c1)CN(C1CCC(=O)NC1=O)C2=O (single isomer, unassigned) [Example 250] | – | 0.002 | 100 | 0.004 | 0.117 | 30 | 97 | – | – |
| [2H]C1(N[C@H]2CCCC[C@@H]2Cc2ccc3c(c2)CN(C2CCC(=O)NC2=O)C3=O)CCC(F)(F)CC1 (some centres unmarked) [Example 119] | 98 | 0.002 | 92 | 0.002 | 0.046 | 54 | – | – | – |
| O=C1CCC(N2Cc3c(ccc(C[C@H]4OCCC[C@@H]4NC4CCOCC4)c3F)C2=O)C(=O)N1 (some centres unmarked) [Example 305] | 96 | 0.014 | 95 | 0.004 | > 1 | – | – | – | – |
| O=C1CCC(N2Cc3c(ccc(C[C@H]4CCCC[C@@H]4NCC4COC4)c3F)C2=O)C(=O)N1 (some centres unmarked) [Example 114] | 98 | 0.008 | 98 | 0.005 | 0.088 | 28 | – | – | – |
| CC1(C)CC(N[C@H]2CCCC[C@@H]2Cc2ccc3c(c2)CN(C2CCC(=O)NC2=O)C3=O)C1 (stereo partly drawn) [Example 82, 3-(5-(((1R,2S)-2-((3,3-dimethylcyclobutyl)amino)cyclohexyl)methyl)-1-oxoisoindolin-2-yl)piperidine-2,6-dione] | 94 | 0.007 | 89 | 0.004 | 0.327 | 28 | – | – | – |
| CC(N[C@H]1CCCC[C@@H]1Cc1ccc2c(c1F)CN(C1CCC(=O)NC1=O)C2=O)C1CCOCC1 (single isomer, unassigned) [Example 288] | – | 0.006 | – | 0.005 | 0.399 | – | 97 | 92 | 32 |
| CC(N[C@H]1CCCC[C@@H]1Cc1ccc2c(c1)CN(C1CCC(=O)NC1=O)C2=O)C1CC(F)(F)C1 (single isomer, unassigned) [Example 136] | 97 | 0.004 | 97 | 0.006 | > 1 | – | – | – | – |
| O=C1CCC(N2Cc3cc(C[C@H]4CCCC[C@@H]4NC4CCC(C(F)F)CC4)ccc3C2=O)C(=O)N1 (some centres unmarked) [Example 217] | – | 0.003 | 89 | 0.002 | 0.085 | – | 97 | – | 44 |
| O=C1CCC(N2Cc3cc(C[C@H]4CCCC[C@@H]4NCC4CC(F)(F)C4)ccc3C2=O)C(=O)N1 (stereo partly drawn) [Example 24, 3-(5-(((1R,2S)-2-(((3,3-difluorocyclobutyl)methyl)amino)cyclohexyl)methyl)-1-oxoisoindolin-2-yl)piperidine-2,6-dione] | 91 | 0.01 | 89 | 0.008 | 0.345 | 25 | – | – | – |
| CC(N[C@H]1CCCC[C@@H]1Cc1ccc2c(c1)CN(C1CCC(=O)NC1=O)C2=O)C1(C#N)CC1 (single isomer, unassigned) [Example 256] | – | – | 95 | 0.01 | > 1 | – | – | – | – |
| O=C1CC[C@@H](N2Cc3c(ccc(C[C@H]4OCCC[C@@H]4NC4CCCCC4)c3F)C2=O)C(=O)N1 (single isomer, unassigned) [Example 339] | 93 | 0.011 | – | – | > 1 | – | – | – | – |
| O=C1CCC(N2Cc3c(ccc(C[C@H]4OCCC[C@@H]4NC4CCOC4)c3F)C2=O)C(=O)N1 (single isomer, unassigned) [Example 296] | 86 | 0.105 | – | – | > 1 | – | – | – | – |
| CC(CCCC(F)(F)F)N[C@H]1CCCO[C@@H]1Cc1ccc2c(c1F)CN(C1CCC(=O)NC1=O)C2=O (some centres unmarked) [Example 321] | 94 | 0.006 | – | – | 0.371 | 44 | – | – | – |
| COC1CCC(N[C@H]2CCCC[C@@H]2Cc2ccc3c(c2)CN(C2CCC(=O)NC2=O)C3=O)CC1 (single isomer, unassigned) [Example 278] | – | 0.004 | – | – | 0.125 | – | 98 | – | 37 |
| O=C1CCC(N2Cc3cc(C[C@H]4CCCC[C@@H]4NCC4CCC(F)(F)CC4)ccc3C2=O)C(=O)N1 (stereo partly drawn) [Example 10, 3-(5-(((1R,2S)-2-(((4,4-difluorocyclohexyl)methyl)amino)cyclohexyl)methyl)-1-oxoisoindolin-2-yl)piperidine-2,6-dione] | 96 | 0.013 | – | – | 0.388 | 46 | – | – | – |
| CC(C)N[C@H]1CCCO[C@@H]1Cc1ccc2c(c1)CN(C1CCC(=O)NC1=O)C2=O (some centres unmarked) [Example 180] | 85 | 0.039 | – | – | > 1 | – | – | – | – |
| O=C1CCC(N2Cc3cc(C[C@H]4CCCC[C@@H]4NC4CCC5COC4O5)ccc3C2=O)C(=O)N1 (some centres unmarked) [Example 195] | 96 | 0.009 | – | – | > 1 | – | – | – | – |
| O=C1CCC(N2Cc3c(ccc(C[C@H]4OCCC[C@@H]4NC4CCC(OC(F)F)CC4)c3F)C2=O)C(=O)N1 (single isomer, unassigned) [Example 326] | 95 | 0.007 | – | – | 0.261 | 40 | – | – | – |
| O=C1CCC(N2Cc3cc(C[C@H]4CCCC[C@@H]4NC4Cc5ccccc5C4)ccc3C2=O)C(=O)N1 (some centres unmarked) [Example 177] | 97 | 0.004 | – | – | 0.078 | 42 | – | – | – |
| N#Cc1ccc(CN[C@H]2CCCC[C@@H]2Cc2ccc3c(c2)CN(C2CCC(=O)NC2=O)C3=O)c(F)c1 (stereo partly drawn) [Example 17, 4-((((1S,2R)-2-((2-(2,6-dioxopiperidin-3-yl)-1-oxoisoindolin-5-yl)methyl)cyclohexyl)amino)methyl)-3-fluorobenzonitrile] | 77 | 0.07 | – | – | > 1 | – | – | – | – |
| O=C1CCC(N2Cc3cc(C[C@H]4CCCC[C@@H]4NCC4COC4)ccc3C2=O)C(=O)N1 (stereo partly drawn) [Example 68, 3-(5-(((1R,2S)-2-((oxetan-3-ylmethyl)amino)cyclohexyl)methyl)-1-oxoisoindolin-2-yl)piperidine-2,6-dione] | 91 | 0.031 | – | – | > 1 | – | – | – | – |
| CC1(C)OCCC1N[C@H]1CCCC[C@@H]1Cc1ccc2c(c1)CN(C1CCC(=O)NC1=O)C2=O (single isomer, unassigned) [Example 274] | – | 0.012 | – | – | 0.102 | 35 | 97 | – | – |
| O=C1CCC(N2Cc3cc(C[C@H]4CCCC[C@@H]4N4CC(c5ccccc5)C4)ccc3C2=O)C(=O)N1 (stereo partly drawn) [Example 55, 3-(1-oxo-5-(((1R,2S)-2-(3-phenylazetidin-1-yl)cyclohexyl)methyl)isoindolin-2-yl)piperidine-2,6-dione] | 87 | 0.025 | – | – | > 1 | – | – | – | – |
| CC(N[C@H]1CCCC[C@@H]1Cc1ccc2c(c1)CN(C1CCC(=O)NC1=O)C2=O)C1(C(F)F)CC1 (some centres unmarked) [Example 311] | 95 | 0.011 | – | – | > 1 | – | – | – | – |
